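Values below derive from 48-hour exposures of cells grown in 96-well plates, with endpoints linearly interpolated between the two concentrations bracketing the appropriate inhibition level. GI50 marks 50% less growth. TGI is the concentration that stops growth completely.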
What was measured:
Experiment in all cases: NCI tumour cell line growth inhibition, 48 h
[1] = tested on: SW-620 colon
[2] = tested on: HT29 colon
[3] = tested on: MALME-3M melanoma
[4] = tested on: NCI-H23 lung
[5] = tested on: NCI-H522 lung
[6] = tested on: SN12C renal
[7] = tested on: SF-295 CNS
[8] = tested on: MDA-N
[9] = tested on: OVCAR-5 ovarian
[10] = tested on: SNB-75 CNS

Structure (SMILES) | TGI [1] [µM] | TGI [2] [µM] | TGI [3] [µM] | TGI [4] [µM] | TGI [5] [µM] | TGI [6] [µM] | TGI [7] [µM] | TGI [8] [µM] | TGI [9] [µM] | TGI [10] [µM] | GI50 [3] [µM] | GI50 [5] [µM] | GI50 [10] [µM]
OCCOCn1nncc1Cn1ncc2c(SCc3ccccc3)ncnc21 | > 100 | > 100 | > 100 | > 100 | > 100 | > 100 | > 100 | > 100 | > 100 | > 100 |  |  | 
C1=C2C3=[N+](CCCCC3)CC2Cc2ccsc21 (configuration not stated) | > 100 | > 100 | > 100 | > 100 | > 100 | > 100 | > 100 | > 100 | > 100 | > 100 |  |  | 
Cc1cc2c(O)c(c1)CN(CC(=O)O)Cc1cc(C)cc(c1O)CN(CC(=O)O)Cc1cc(C)cc(c1O)CN(CC(=O)O)C2 | > 100 | > 100 | > 100 | > 100 | > 100 | > 100 | > 100 | > 100 | > 100 | > 100 |  |  | 
CC1C(NNc2ccccc2)Oc2cc3c(cc2C1c1ccccc1O)OCO3 (configuration not stated) | 28.6 | 19.4 | 10.4 | 26.5 | 14.2 | 20.1 | 3.49 | 18.4 | 19.1 | 23.6 |  |  | 
COc1ccc(OC2OC(CO)C(OCc3ccccc3)C(OCc3ccccc3)C2OCc2ccccc2)cc1 (configuration not stated) | > 100 | > 100 | > 100 | > 100 | > 100 | > 100 | > 100 | > 100 | > 100 | > 100 |  |  | 
Cc1ccc2c(c1)-c1c(C#N)c(N)nc(-c3ccc(Cl)cc3)c1CCS2(=O)=O | > 100 | > 100 | > 100 | > 100 | > 23.1 | > 100 | > 100 | 8.88 | > 100 | 14.3 |  |  | 
CC(C)C(CC(=O)OCC(CO)OC(=O)CC(C(C)C)C(C)C)C(C)C (configuration not stated) | 26.8 | 32.1 | 28.4 | 30.4 | 25.6 | 28.3 | 21.1 | 30.1 | 26.1 | 21.8 |  |  | 
Cn1c(=O)c(-c2ccccc2)c(O)c2ccccc21 | > 100 | > 100 | > 100 | > 100 | > 100 | > 100 | > 100 | > 100 | > 100 | > 100 |  |  | 
O=c1nc2c(c(-c3ccc(Br)cc3)[nH]1)COC/C2=C\c1ccc(Br)cc1 | > 50 | > 50 | > 50 | > 50 | > 50 | > 50 | > 50 | > 50 | > 50 | > 50 |  |  | 
CC1CCC2(NC1)OC1CC3C4CC=C5CC(OC6OC(CO)C(OC7OC(C)C(O)C(O)C7O)C(O)C6OC6OC(C)C(O)C(O)C6O)CCC5(C)C4CCC3(C)C1C2C (configuration not stated) | 22.3 | 15.6 | 9.23 | 27.1 | 3.43 | 4.83 | 3.94 | 4.99 | 16.1 | 5.87 |  |  | 
O=C(O)c1cccc2cccc(-c3cccc4cccc(C(=O)O)c34)c12 | > 100 | > 100 | > 100 | > 100 | > 100 | > 100 | > 100 | > 100 | > 100 | > 100 |  |  | 
CCC(O)(Cc1ccc(OC)cc1)c1ccc(OC)cc1 (configuration not stated) | > 100 | > 100 | > 100 | > 100 | > 100 | > 100 | > 100 | > 100 | > 100 | > 100 |  |  | 
CCC(CO)Nc1nc(NCc2ccccc2)c2ncn(C(C)C)c2n1 (configuration not stated) | > 79 | 52.5 | 59.3 | 36.1 | 55.4 | > 100 | 50.9 | > 100 | > 69.1 | 26.8 |  |  | 
C=C(C)OCOCCOC | > 100 | > 100 | > 100 | > 100 | > 100 | > 100 | > 100 | > 100 | > 100 | > 100 |  |  | 
CCCCC1=C(C(=O)N2CCOCC2)C2(OCCO2)C1=O | 81.9 | 45.1 | 57 | 51.1 | 32.6 | 32.7 | > 100 | 71.2 | 46.8 | > 100 |  |  | 
COc1ccc(/C=c2\s/c(=C3/SC(=S)N(c4ccccc4)C3=O)n(-c3ccccc3)c2=O)cc1 | > 100 | > 100 | > 100 | > 100 | > 100 | > 100 | > 100 | > 100 | > 100 | 21.4 |  |  | 

Structure (SMILES) | TGI [1] [µM] | TGI [2] [µM] | TGI [3] [µM] | TGI [4] [µM] | TGI [5] [µM] | TGI [6] [µM] | TGI [7] [µM] | TGI [8] [µM] | TGI [9] [µM] | TGI [10] [µM] | GI50 [3] [µM] | GI50 [5] [µM] | GI50 [10] [µM]
CCc1c(CNc2ccc(C(=O)NC(CC(=O)O)C(=O)O)cc2)ccc2nc(N)nc(N)c12 (configuration not stated) | > 1000 | > 1000 | > 1000 | > 1000 | > 1000 | > 1000 | > 1000 | > 1000 | > 1000 | > 1000 | 0.179 | 1.09 | 115
CC1=NN(c2nc(N)nc(-c3sccc3N)n2)C(C)(C)C1 | > 100 | > 100 | > 100 | > 100 | > 100 | > 100 | > 100 | > 100 | > 100 | > 100 |  |  | 
COc1ccccc1C1Nn2c(nc3ccccc3c2=O)N1c1ccc(C)cc1 (configuration not stated) | 18.2 | 29.5 | 38.7 | 29.3 | 28.5 | 21.7 | 17.8 | 20.9 | 26.6 | 30.5 |  |  | 
Cc1c(CN2CCN(C)CC2)c(CN2CCN(C)CC2)c(C)n1-c1ccc(Cl)cc1 | > 100 | 42.7 | 37.5 | > 100 | 40.8 | > 100 | 48.9 | 58.5 | > 100 | 88.4 |  |  | 
COc1cc(CC(C)NC(C)=O)cc(OC)c1 (configuration not stated) | > 100 | > 100 | > 100 | > 100 | > 100 | > 100 | > 100 | > 100 | > 100 | > 100 |  |  | 
Cc1[nH]c(=O)nc(NCCNCCO)c1C(=O)Nc1cccc2cc3ccccc3cc12 | > 100 | > 100 | > 100 | > 100 | > 100 | > 100 | > 100 | > 100 | > 100 | > 100 |  |  | 
CCCCSc1nsc(N(C(=O)c2ccccc2)C(=O)c2ccccc2)n1 | > 100 | 82.5 | 71.1 | > 100 | 69.5 | > 100 | > 100 | > 100 | 89.4 | 73.8 |  |  | 
CCOc1ccc(Nc2nc(N)nc(N)c2N)cc1 | > 100 | 33.3 | 66.2 | > 100 | 52.1 |  | 45.8 | 13.3 | > 100 | 70.5 |  |  | 
Cc1cc2ncn(C3CCCCO3)c2cc1C (configuration not stated) | > 100 | > 100 | > 100 | > 100 | > 100 | > 100 | > 100 | > 100 | > 100 | > 100 |  |  | 
c1ccc2c(c1)Sc1nccc3ccnc-2c13 | > 100 | 65.5 | > 100 | > 100 | 97.1 | > 100 | > 100 | > 100 | > 100 | 58.7 |  |  | 
Cc1cc(C)c(S(=O)(=O)N(CCCN)OCCCON(CCCN)S(=O)(=O)c2c(C)cc(C)cc2C)c(C)c1 | 6.45 | 3.22 | 2.61 | 4.66 | 2.88 | 13.6 | 21.4 | 3.51 | 5.86 | 3.29 |  |  | 
COc1cc(C(=O)Oc2ccc3c(c2)OCO3)cc(OC)c1OC | > 100 | > 100 | > 100 | > 100 | > 100 | > 100 | > 100 | > 100 | > 100 | > 100 |  |  | 
C[C@]12CCC(=O)[C@@H](CCC3=CC(=O)C=CC3=O)[C@@H]1CCC2=O | > 58.7 | 82.2 | 37.9 | 38.2 | 5.64 | > 100 | 36.7 | > 52.8 | > 75.1 | 25.8 |  |  | 
CCn1c2ccc(C(=O)CCCN3CCCCC3)cc2c2cc(C(=O)CCCN3CCCCC3)ccc21 | 3.9 | 4.2 | 18.5 | 4.49 | 4.05 | 20 | 10.7 | 5.7 | 22.8 | 8.26 |  |  | 
COc1cc(C(c2c(O)c3ccccc3oc2=O)c2c(O)c3ccccc3oc2=O)cc(Br)c1O | 48.4 | 37.1 | 31 | 42.7 | 26.8 | 29.8 | 40.3 | 36 | 39.3 | 39.4 |  |  | 
COc1ccc2nc(/C(N)=C\C#N)ccc2c1 | > 100 | > 100 | > 100 | > 100 | > 100 | > 100 | > 100 | > 100 | > 100 | > 100 |  |  | 

Source: PubChem BioAssay (NCI)
